Laboratory results reported in publication PMC7558026, “Exploring and applying the substrate promiscuity of a C-glycosyltransferase in the chemo-enzymatic synthesis of bioactive C-glycosides” (Nature Communications, 2020).

Tests used:
Type in all cases: biochemical, Aloe barbadensis
AbCGT [1] = assay: Effects of pH, temperature and divalent metal ions on AbCGT activity (phloretin 17 + UDP-Glc)
Procedure: To assay for the optimal reaction temperature, the reaction mixtures were incubated at pH 11.0 and different temperatures (15–60 °C). To test the necessity of divalent metal ions for AbCGT, BaCl2, CaCl2, CoCl2, CuCl2, FeCl2, MgCl2, MnCl2, ZnCl2, and EDTA were used individually at a final concentration of 5 mM. […] For quantification, three parallel assays were routinely carried out.

AbCGT [2] = target: T1, AbCGT (Aloe vera, UniProt A0A7G9P699); assay: Kinetic parameters of AbCGT (wild type); details: acceptor varied, saturating UDP-Glc, pH 7.4, 30 °C
Procedure: The reactions terminated by the addition of 200 μL of ice-cold methanol. Subsequently, samples were centrifuged at 15,000 × g for 30 min to collect the supernatant, and aliquots were analyzed by HPLC as described above. All experiments were performed in triplicate. The value of Km was calculated with the method of Lineweaver–Burk plot.

AbCGT [3] = assay: Effects of pH, temperature and divalent metal ions on AbCGT activity (phloretin 17 + UDP-Glc); remark: listed apart in the source
AbCGT [4] = target: T1, AbCGT; assay: Glycosyltransferase activity assay, purified AbCGT (wild type) with aglycon acceptors and UDP-Glc; details: aglycon acceptor with UDP-Glc, pH 7.4, 30 °C, up to 12 h; Reaction-1 to -3
[5] = pH 6.0, Na2HPO4-NaH2PO4 buffer, reaction-3
[6] = pH 6.0, citric acid-sodium citrate buffer, reaction-1
[7] = pH 6.0, citric acid-sodium citrate buffer, reaction-2
[8] = pH 6.0, citric acid-sodium citrate buffer, reaction-3
[9] = pH 7.0, Na2HPO4-NaH2PO4 buffer, reaction-1
[10] = pH 7.0, Na2HPO4-NaH2PO4 buffer, reaction-2
[11] = pH 7.0, Na2HPO4-NaH2PO4 buffer, reaction-3
[12] = pH 7.0, Tris-HCl buffer, reaction-1
[13] = pH 7.0, Tris-HCl buffer, reaction-2
[14] = pH 7.0, Tris-HCl buffer, reaction-3
[15] = pH 8.0, Tris-HCl buffer, reaction-1
[16] = pH 8.0, Tris-HCl buffer, reaction-2
[17] = pH 8.0, Tris-HCl buffer, reaction-3
[18] = pH 9.0, Na2CO3-NaHCO3 buffer, reaction-1
[19] = pH 9.0, Na2CO3-NaHCO3 buffer, reaction-2
[20] = pH 9.0, Na2CO3-NaHCO3 buffer, reaction-3
[21] = pH 9.0, Tris-HCl buffer, reaction-1
[22] = pH 9.0, Tris-HCl buffer, reaction-2
[23] = pH 9.0, Tris-HCl buffer, reaction-3
[24] = pH 10.0, Na2CO3-NaHCO3 buffer, reaction-1
[25] = pH 10.0, Na2CO3-NaHCO3 buffer, reaction-2
[26] = pH 10.0, Na2CO3-NaHCO3 buffer, reaction-3
[27] = pH 11.0, Na2CO3-NaHCO3 buffer, reaction-1
[28] = pH 11.0, Na2CO3-NaHCO3 buffer, reaction-2
[29] = pH 11.0, Na2CO3-NaHCO3 buffer, reaction-3
[30] = pH 12.0, Na2CO3-NaHCO3 buffer, reaction-1
[31] = pH 12.0, Na2CO3-NaHCO3 buffer, reaction-2
[32] = pH 12.0, Na2CO3-NaHCO3 buffer, reaction-3

T1 sequence (A0A7G9P699 entry or part of it): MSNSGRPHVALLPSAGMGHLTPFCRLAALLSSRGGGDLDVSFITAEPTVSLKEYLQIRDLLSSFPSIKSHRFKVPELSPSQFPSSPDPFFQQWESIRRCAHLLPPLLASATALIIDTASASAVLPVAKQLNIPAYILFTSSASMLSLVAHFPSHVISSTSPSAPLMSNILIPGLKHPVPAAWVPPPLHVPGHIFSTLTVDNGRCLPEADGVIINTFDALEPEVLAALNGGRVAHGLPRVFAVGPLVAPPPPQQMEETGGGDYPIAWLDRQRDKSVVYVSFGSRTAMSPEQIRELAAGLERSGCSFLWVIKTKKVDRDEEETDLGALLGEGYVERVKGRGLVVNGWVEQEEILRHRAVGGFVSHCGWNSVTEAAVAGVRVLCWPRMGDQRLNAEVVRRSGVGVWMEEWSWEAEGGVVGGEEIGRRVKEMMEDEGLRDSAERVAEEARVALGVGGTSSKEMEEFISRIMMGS

## O=C(CCc1ccc(O)cc1)c1c(O)cc(O)cc1O [Compound 17, phloretin]
AbCGT [1]; [5]
  conversion rates of Phloretin: 25.4
  relative activity: 25.5
AbCGT [1]; [6]
  conversion rates of Phloretin: 11.7
  relative activity: 11.8
AbCGT [1]; [7]
  conversion rates of Phloretin: 15.2
  relative activity: 15.3
AbCGT [1]; [8]
  conversion rates of Phloretin: 13
  relative activity: 13.1
AbCGT [1]; [9]
  conversion rates of Phloretin: 30.8
  relative activity: 30.9
AbCGT [1]; [10]
  conversion rates of Phloretin: 28
  relative activity: 28.1
AbCGT [1]; [11]
  conversion rates of Phloretin: 30.7
  relative activity: 30.8
AbCGT [1]; [12]
  conversion rates of Phloretin: 34.2
  relative activity: 34.4
AbCGT [1]; [13]
  conversion rates of Phloretin: 33.6
  relative activity: 33.8
AbCGT [1]; [14]
  conversion rates of Phloretin: 34.8
  relative activity: 35.0
AbCGT [1]; [15]
  conversion rates of Phloretin: 35
  relative activity: 35.2
AbCGT [1]; [16]
  conversion rates of Phloretin: 36.1
  relative activity: 36.3
AbCGT [1]; [17]
  conversion rates of Phloretin: 35.4
  relative activity: 35.6
AbCGT [1]; [18]
  conversion rates of Phloretin: 53
  relative activity: 53.2
AbCGT [1]; [19]
  conversion rates of Phloretin: 52.2
  relative activity: 52.4
AbCGT [1]; [20]
  conversion rates of Phloretin: 53.9
  relative activity: 54.2
AbCGT [1]; [21]
  conversion rates of Phloretin: 45.9
  relative activity: 46.1
AbCGT [1]; [22]
  conversion rates of Phloretin: 46.5
  relative activity: 46.7
AbCGT [1]; [23]
  conversion rates of Phloretin: 53
  relative activity: 53.2
AbCGT [1]; [24]
  conversion rates of Phloretin: 89.2
  relative activity: 89.6
AbCGT [1]; [25]
  conversion rates of Phloretin: 93
  relative activity: 93.4
AbCGT [1]; [26]
  conversion rates of Phloretin: 92.7
  relative activity: 93.1
AbCGT [1]; [27]
  conversion rates of Phloretin: 99.2
  relative activity: 99.7
AbCGT [1]; [28]
  conversion rates of Phloretin: 100
  relative activity: 100.5
AbCGT [1]; [29]
  conversion rates of Phloretin: 99.4
  relative activity: 99.9
AbCGT [1]; [30]
  conversion rates of Phloretin: 0
  relative activity: 0.0
AbCGT [1]; [31]
  conversion rates of Phloretin: 0
  relative activity: 0.0
AbCGT [1]; [32]
  conversion rates of Phloretin: 0
  relative activity: 0.0
AbCGT [2]
  Kcat: 2 s⁻¹
AbCGT [3]; pH 5.0, citric acid-sodium citrate buffer, reaction-1
  relative activity: 0.2
AbCGT [3]; pH 6.0, Na2HPO4-NaH2PO4 buffer, reaction-2
  relative activity: 25.2
AbCGT [4]
  conversion rates, O,N,S-glycosylation: 0%
  conversion rates, di-C-glycosylation: 100%
  conversion rates, mono-C-glycosylation: 0%
